These results are taken from ChEMBL document CHEMBL1138277, “Synthesis and in vivo activity of MK2 and MK2 substrate-selective p38alpha(MAPK) inhibitors in Werner syndrome cells” (Bioorg Med Chem Lett, 2007).

Each structure is given as a SMILES string. Active and inactive are the calls of the source. The rule behind the calls is not given here.

The target in test [1] is T1, MAP kinase-activated protein kinase 2 (Homo sapiens, UniProt P49137). Put plainly: Inhibition of MK2 mediated HSP27 phosphorylation in immortalised WS cells assessed as reduction in F-actin stress fibres. Type of test: cell-based.
Target sequence in this assay (P49137 whole entry, looked up): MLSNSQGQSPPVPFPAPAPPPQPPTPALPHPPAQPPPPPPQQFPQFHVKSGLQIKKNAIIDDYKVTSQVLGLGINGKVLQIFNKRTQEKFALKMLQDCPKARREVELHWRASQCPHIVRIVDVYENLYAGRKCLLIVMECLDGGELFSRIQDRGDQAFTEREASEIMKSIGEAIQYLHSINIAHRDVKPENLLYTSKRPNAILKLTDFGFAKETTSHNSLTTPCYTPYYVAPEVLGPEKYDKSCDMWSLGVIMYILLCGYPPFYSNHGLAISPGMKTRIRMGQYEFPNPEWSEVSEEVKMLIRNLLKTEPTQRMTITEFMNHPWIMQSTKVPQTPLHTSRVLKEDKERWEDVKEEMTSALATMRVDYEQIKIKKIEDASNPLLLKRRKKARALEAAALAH
Test [2] relates to WS. The test is described as follows: Growth inhibition of WS cells above 200 nM. Type of test: functional, cell-based. Particulars: Homo sapiens.
Test [3] concerns the target T1, MAP kinase-activated protein kinase 2. The test is described as follows: Inhibition of MK2 in human TERT immortalised HCA2 cells assessed as inhibition of anisomycin-induced HSP27 phosphorylation at 2.5 uM by ELISA. Format: cell-based.
The species entered for a further test is Homo sapiens. The test is described as follows: Inhibition of JNK.
Test [4] addresses MAP kinase p38 (Homo sapiens) (UniProt O15264+Q15759+Q16539+P53778). The test is described as follows: Inhibition of p38 mediated MK2 activation in HCA2 cells at 25 uM. Type of test: cell-based.
The next test has as its system HCA2. The test is described as follows: Growth inhibition of HCA2 cells above 2.5 uM. Format: functional, cell-based. Particulars: Homo sapiens.
In test [5] the target is T1, MAP kinase-activated protein kinase 2. The test is described as follows: Inhibition of MK2 in human TERT immortalised HCA2 cells assessed as maximal inhibition of anisomycin-induced HSP27 phosphorylation at 25 uM by ELISA. Format: cell-based. (ELISA stands for enzyme-linked immunosorbent assay.)
Target sequence in this assay (P49137 whole entry, looked up): as above
Test [6] relates to WS. The test is described as follows: Growth inhibition of WS cells above 2.5 uM. Format: functional, cell-based. The conditions noted are these: Homo sapiens.
The target of test [7] is T1, MAP kinase-activated protein kinase 2. The test is described as follows: Inhibition of MK2 in human TERT immortalised HCA2 cells assessed as inhibition of anisomycin-induced HSP27 phosphorylation by ELISA. Format: cell-based.
Target sequence in this assay (P49137 whole entry): as the sequence (P49137 whole entry, looked up) above
Test [8] has the same target. The test is described as follows: Inhibition of MK2 mediated HSP27 phosphorylation in immortalised WS cells assessed as reduction in F-actin stress fibres at 25 uM after 6 days. Format: cell-based.
Target sequence in this assay (P49137 whole entry, looked up): as above

On to `C[S+]([O-])c1ccc(-c2nc(-c3ccc(F)cc3)c(-c3ccncc3)[nH]2)cc1` (stereo not drawn), for which the result in test [1] was Active.

Regarding `O=C(CCCc1ccc(-c2ccccc2F)cc1)Nc1ccc(O)cc1`, the result in the test with WS [2] was Active. The Ki app in test [3] came to 0.33 µM. For the same compound, in the test filed under Homo sapiens, the outcome was inactive.

As for `N#Cc1c(N)nc2c(c1N)Cc1cc(O)c(O)cc1O2`, the outcome (in test [4]; in the test listed under Homo sapiens) was inactive. For the same compound, the result (in the test with HCA2; in test [3]; in [5]; in the test with WS [6]; in test [1]; in test [8]) was Active. Moreover, the IC50 (usually the midpoint of a concentration-inhibition curve) in [7] came out at 2.5 µM.
